Measured values as given in ChEMBL document CHEMBL4725257, “Investigation into the influence of an acrylic acid acceptor in organic D-π-A sensitizers against phototoxicity” (Bioorg Med Chem, 2020).

Experiments:
HeLa [1] = experiment: Cytotoxicity against human HeLa cells assessed as reduction in cell viability incubated for 48 hrs measured under dark conditions by MTT assay; assay type: functional, cell-based
HeLa [2] = experiment: Phototoxicity against human HeLa cells assessed as reduction in cell viability preincubated for 1 hr followed by white LED irradiation for 15 mins and measured after 48 hrs by MTT assay; assay type: functional, cell-based; settings: light or radiation study
[3] = Photo-oxidation of L-tryptophan assessed as oxidative damage at 10 uM irradiated with white LED light at 15 mins interval for 60 mins by fluorescence based analysis; assay type: ADME; settings: 1 h
[4] = Drug uptake in human HeLa cells at 20 uM incubated for 1 hr at 37 degC by fluorescence based analysis; assay type: ADME, cell-based
[5] = Drug uptake in human HeLa cells at 20 uM incubated for 1 hr at 4 degC by fluorescence based analysis; assay type: ADME, cell-based
[6] = Phototoxicity index, ratio of IC50 for cytotoxicity against human HeLa cells measured under dark condition to IC50 for phototoxicity against human HeLa cells upon white LED light irradiation; assay type: functional
[7] = Drug uptake in mitochondria of human HeLa cell by fluorescence confocal microscopy; assay type: ADME
[8] = Drug uptake in lysosomes of human HeLa cell by fluorescence confocal microscopy; assay type: ADME, subcellular, Lysosome
[9] = Drug uptake in human HeLa cells at 20 uM pretreated with clathrin-mediated endocytosis inhibitor, sucrose for 1 hr followed by incubation with compound for 1 hr by fluorescence based analysis; assay type: ADME, cell-based
[10] = Drug uptake in human HeLa cells at 20 uM pretreated with lipid raft endocytosis inhibitor, methyl-beta-cyclodextrin for 1 hr followed by incubation with compound for 1 hr by fluorescence based analysis; assay type: ADME, cell-based
[11] = Drug uptake in human HeLa cells at 20 uM pretreated with endosome fusion inhibitor, wortmannin for 1 hr followed incubation with compound for 1 hr by fluorescence based analysis; assay type: ADME, cell-based
[12] = Photo-oxidation of L-tryptophan assessed as oxidative damage at 10 uM irradiated with white LED light at 15 mins interval for 60 mins in presence of type 2 singlet oxygen quencher, NaN3 by fluorescence based analysis; assay type: ADME; settings: 1 h
[13] = Drug uptake in human HeLa cell membrane by fluorescence confocal microscopy; assay type: ADME, cell membranes

Row | SMILES | Drug uptake [4] [pmol] | Drug uptake [5] [pmol] | Drug uptake [7] | Drug uptake [8] | Drug uptake [9] [pmol] | Drug uptake [10] [pmol] | Drug uptake [11] [pmol] | Drug uptake [13] | IC50 (HeLa [1]) [µM] | IC50 (HeLa [2]) [µM] | Activity [3] | Ratio IC50 [6] | Activity [12]
1 | N#CC(C#N)=Cc1ccc(-c2ccc(-c3ccc(N(c4ccccc4)c4ccccc4)cc3)s2)s1 |  |  |  |  |  |  |  |  | > 100 | > 74.4 |  |  | 
2 | COC(=O)/C(C#N)=C/c1ccc(-c2ccc(-c3ccc(N(c4ccccc4)c4ccccc4)cc3)s2)s1 |  |  |  |  |  |  |  |  | > 100 | > 100 |  |  | 
3 | O=C(O)/C=C/c1ccc(-c2ccc(-c3ccc(N(c4ccccc4)c4ccccc4)cc3)s2)s1 | 80 | 40 | Active | Active |  |  |  |  | 13.8 | 0.046 | Active | 460 | 
4 | O=C(O)C(=Cc1ccc(-c2ccc(-c3ccc(N(c4ccccc4)c4ccccc4)cc3)s2)s1)C(=O)O | 53 | 36 | Active | Active |  |  |  |  | 61.8 | 0.68 | Active | 91 | Not Active
5 | C[n+]1ccc(/C=C/c2ccc(-c3ccc(-c4ccc(N(c5ccccc5)c5ccccc5)cc4)s3)s2)cc1.[I-] | 747 | 344 | Active | Active | 591 | 555 | 649 | Active | 3.3 | 0.94 | Active | 3.5 | 

Further lines, with some results ahead:

Row | Drug uptake [4] [pmol] | Drug uptake [5] [pmol] | Drug uptake [7] | Drug uptake [8] | Drug uptake [9] [pmol] | Drug uptake [10] [pmol] | Drug uptake [11] [pmol] | Drug uptake [13] | SMILES | IC50 (HeLa [1]) [µM] | IC50 (HeLa [2]) [µM] | Activity [3] | Ratio IC50 [6] | Activity [12]
6 | 299 | 64 | Active | Active | 188 | 82 | 205 |  | O=C(O)c1ccc(-c2ccc(-c3ccc(N(c4ccccc4)c4ccccc4)cc3)s2)s1 | > 100 | 7.8 | Active | >12 | 
7 | 232 | 44 | Active | Active | 199 | 98 | 225 |  | O=C(O)CCc1ccc(-c2ccc(-c3ccc(N(c4ccccc4)c4ccccc4)cc3)s2)s1 | 43.4 | 2.4 | Active | 18 | 
8 | 105 | 68 | Active | Active |  |  |  |  | c1ccc(N(c2ccccc2)c2ccc(-c3ccc(-c4cccs4)s3)cc2)cc1 | > 100 | > 100 | Active |  | 
